In brackets after ≈: the same amount, converted by molar mass. Read-outs that look alike come from different tables or passages of the source.

As a reminder, the ED50 is the dose that gives a 50% effect, or the effect in half of the subjects.

One experiment concerns S. epidermidis. The experiment can be described thus: In vitro broth microdilution minimal inhibitory concentration, S. epidermidis (Table I). The format is cell-based. The note with it: Staphylococcus epidermidis, read-out: MIC (minimal inhibitory concentration), S. epidermidis. The text has this: (§1) A list is presented in Table I of analogs which exert an in-vitro antibacterial effect.

For experiment [1], the system named is E. Coli. The experiment in a line: In vitro broth microdilution minimal inhibitory concentration, E. Coli (Table I). The format is cell-based. The note with it: Escherichia coli, read-out: MIC (minimal inhibitory concentration), E. Coli.
Description: as §1

Another experiment has as its system Staphylococcus aureus. The experiment in a line: In vivo efficacy in mice infected intraperitoneally with Staphylococcus aureus (Table III). The note with it: 4 h, read-out: ED50, S. auerus. The protocol: (§2) In-vivo efficacy determinations were performed by inoculating mice interaperitoneally with cultures of the infecting organism diluted to produce 90-100% mortality in control animals within seven days. The diluents used were trypticase soy broth for E. coli, Proteus sp. and Psuedomonas aeruginosa and 5% hog gastric mucin for Staphylococcus aureus infections. The compounds, dissolved or suspended in 0.25% methocel.cndot.H2 O were administered orally by intubation at the time of infection and again at four hours post-infection. Mortality was recorded daily until test termination and the 50 percent effective dose. ED50, was calculated by the Reed-Muench method (Reed, L. G. and Muench, H., "A simple method of estimating fifty percent end points." American Journal of Hygiene, 27, 1938, 493-497).

The test system of experiment [2] is E. coli. The experiment can be described thus: In vivo efficacy in mice infected intraperitoneally with E. coli (Table III). The note with it: Escherichia coli, 4 h, read-out: ED50, E. Coli. The procedure:
as §2

The mark [3] stands for this setting: broth microdilution, Mueller-Hinton broth, 24 hour.
[4] abbreviates: mice, intraperitoneal infection, 5% hog gastric mucin, oral dosing at infection and four hours post-infection, Reed-Muench.
[5] abbreviates: mice, intraperitoneal infection, trypticase soy broth, oral dosing at infection and four hours post-infection, Reed-Muench.

On to `NS(=O)(=O)c1ccc(N2CC(COC(=O)CCC(=O)O)OC2=O)cc1` (racemic) [Example 20, dl-Butanedioic acid, Mono Ester with 4-[5-(Hydroxymethyl)-2-oxooxazolidin-3-yl]benzenesulfonamide], for which the MIC in the experiment with S. epidermidis (setting [3]) and in the experiment with E. Coli [1] (setting [3]) was > 100 µg/mL in each case. Further, the median effective dose (ED50) is 85.3 mg/kg with Staphylococcus aureus (setting [4]) and 77.3 mg/kg with E. coli [2] (setting [5]).
Consider `O=C(NS(=O)(=O)c1ccc(N2CC(CO)OC2=O)cc1)C(Cl)Cl` (racemic) [Example 34, dl-2,2-Dichloro-N-[4-[5-(Hydroxymethyl)-2-oxooxazolidin-3-yl]phenylsulfonyl]acetamide], for which the MIC in the experiment on S. epidermidis (setting [3]) and with E. Coli [1] (setting [3]) was > 200 µg/mL in each case. The median effective dose (ED50) in the experiment with Staphylococcus aureus (setting [4]) came out at 18.3 mg/kg.
Consider `CC(C)c1ccc(N2CC(CO)OC2=O)cc1` (racemic) [Example 39], for which the ED50 with Staphylococcus aureus (setting [4]) came out at 116 mg/kg.
Regarding `COC[C@@H]1CN(c2ccc(S(N)(=O)=O)cc2)C(=O)O1` [Example 33, l-4-[5-(Methoxymethyl)-2-oxooxazolidin-3-yl]benzenesulfonamide], the MIC with S. epidermidis (setting [3]) and with E. Coli [1] (setting [3]) was > 200 µg/mL in each case. For the same compound, the median effective dose (ED50) in the experiment on Staphylococcus aureus (setting [4]) turned out to be 59.6 mg/kg.
Consider `NS(=O)(=O)c1ccc(N2CC(CO)OC2=O)cc1` (stereo not shown) [Example 1, 4-[5-(Hydroxymethyl)-2-oxooxazolidin-3-yl]benzenesulfonamide], for which the MIC with S. epidermidis (setting [3]) and in the experiment on E. Coli [1] (setting [3]) was 100 µg/mL (≈ 367 µM) each time. In addition, the ED50 in the experiment on Staphylococcus aureus (setting [4]) came to 40.2 mg/kg; in the experiment with E. coli [2] (setting [5]), 19.7 mg/kg.
Turning to `CC(=NO)c1ccc(N2CC(CO)OC2=O)cc1` (racemic) [Example 37, dl-5-Hydroxymethyl-3-[4-(1-hydroxyiminoethyl)phenyl]-2-oxazolidinone], the MIC with S. epidermidis (setting [3]) and in the experiment on E. Coli [1] (setting [3]) was > 50 µg/mL throughout. Further, the median effective dose (ED50) in the experiment with Staphylococcus aureus (setting [4]) was found to be 68 mg/kg.
Consider `CONS(=O)(=O)c1ccc(N2C[C@@H](CO)OC2=O)cc1` [Example 10, l-4-[5-(Hydroxymethyl)-2-oxooxazolidin-3-yl]-N-methoxybenzenesulfonamide], for which the MIC in the experiment on S. epidermidis (setting [3]) was 100 µg/mL (≈ 331 µM); with E. Coli [1] (setting [3]) it was > 100 µg/mL. Further, the ED50 in the experiment on Staphylococcus aureus (setting [4]) was 52 mg/kg.
Regarding `[N-]=[N+]=NS(=O)(=O)c1ccc(N2C[C@@H](CO)OC2=O)cc1` [Example 5, l-4-[5-(Hydroxymethyl)-2-oxooxazolidin-3-yl]benzenesulfonyl Azide], the MIC in the experiment with S. epidermidis (setting [3]) was 2.4 µg/mL (≈ 8.05 µM); in the experiment with E. Coli [1] (setting [3]), 7.9 µg/mL (≈ 26.5 µM). Further, the ED50 in the experiment on Staphylococcus aureus (setting [4]) is 24.9 mg/kg; in the experiment on E. coli [2] (setting [5]), 14.9 mg/kg.
Turning to `O=C1OC(CO)CN1c1ccc([N+](=O)[O-])cc1` (racemic) [Example 43], the median effective dose (ED50) in the experiment with Staphylococcus aureus (setting [4]) was 40 mg/kg; with E. coli [2] (setting [5]), > 360 mg/kg.
Regarding `COC[C@@H]1CN(c2ccc(SC)cc2)C(=O)O1` [Example 31, l-5-(Methoxymethyl)-3-[4-(methylthio)phenyl]-2-oxazolidinone], the MIC in the experiment on S. epidermidis (setting [3]) and with E. Coli [1] (setting [3]) was > 200 µg/mL each time. Further, the 50% effective dose (ED50) in the experiment with Staphylococcus aureus (setting [4]) amounted to 54.6 mg/kg.
With `CON=C(C)c1ccc(N2CC(CO)OC2=O)cc1` (racemic) [Example 38, dl-5-Hydroxymethyl-3-[4-(1-methoxyiminoethyl)phenyl]-2-oxazolidinone], the ED50 in the experiment on Staphylococcus aureus (setting [4]) is 76.6 mg/kg.
Same read-out and setting: then `N#Cc1ccc(N2CC(CO)OC2=O)cc1` (racemic) [Example 42], with 66.4 mg/kg.
For `[N-]=[N+]=NS(=O)(=O)c1ccc(N2CC(CO)OC2=O)cc1` (racemic) [Example 4, dl-4-[5-(Hydroxymethyl)-2-oxooxazolidin-3-yl]benzenesulfonyl Azide], the figures for the MIC in the experiment on S. epidermidis (setting [3]) and in the experiment on E. Coli [1] (setting [3]) were 4.2 µg/mL (≈ 14.1 µM) and 12.5 µg/mL (≈ 41.9 µM), respectively. The values for the median effective dose (ED50) in the experiment with Staphylococcus aureus (setting [4]) and in the experiment on E. coli [2] (setting [5]) were 26 mg/kg and 17.9 mg/kg, respectively.
With `CC(=O)NS(=O)(=O)c1ccc(N2CC(CO)OC2=O)cc1` (stereo not shown) [Example 36, N-[4-[5-(Hydroxymethyl)-2-oxooxazolidin-3-yl]phenylsulfonyl]acetamide], the MIC with S. epidermidis (setting [3]) and with E. Coli [1] (setting [3]) was > 100 µg/mL in each case. Besides, the results for the 50% effective dose (ED50) in the experiment on Staphylococcus aureus (setting [4]) and with E. coli [2] (setting [5]) were > 120 mg/kg and 56.9 mg/kg, respectively.
For `O=C1OC(CO)CN1c1ccc(S(=O)(=O)NC(=O)C(Cl)(Cl)Cl)cc1` (racemic) [Example 35, dl-2,2,2-Trichloro-N-[4-[5-(hyroxymethyl)-2-oxooxazolidin-3-yl]phenylsulfonyl]acetamide], the MIC with S. epidermidis (setting [3]) and in the experiment with E. Coli [1] (setting [3]) was > 200 µg/mL in each case. The 50% effective dose (ED50) with Staphylococcus aureus (setting [4]) came to 58.5 mg/kg.
On to `CC(=O)c1ccc(N2CC(CO)OC2=O)cc1` (racemic) [Example 41], for which the results for the 50% effective dose (ED50) in the experiment with Staphylococcus aureus (setting [4]) and in the experiment on E. coli [2] (setting [5]) were 35.8 mg/kg and 97.6 mg/kg, respectively.
Turning to `O=C1O[C@H](CO)CN1c1ccc(S(=O)(=O)NC2CC2)cc1` [Example 9, l-4-[5-(Hydroxymethyl)-2-oxooxazolidin-3-yl]-N-cyclopropylbenzenesulfonamide], the MIC with S. epidermidis (setting [3]) and in the experiment with E. Coli [1] (setting [3]) was > 100 µg/mL throughout. Further, the ED50 in the experiment on Staphylococcus aureus (setting [4]) came out at 89.2 mg/kg.
On to `O=C1OC(CO)CN1c1ccc(S(=O)(=O)NCl)cc1.[Na]` (racemic) [Example 13, dl-N-Chloro-4-[5-(hydroxymethyl)-2-oxooxazolidin-3-yl]benzenesulfonamide, sodium salt], for which the MIC in the experiment with S. epidermidis (24 h) amounted to 100 µg/mL; with E. Coli [1] (24 h) it was 200 µg/mL. For the same compound, the ED50 in the experiment on Staphylococcus aureus (po) is 47.4 mg/kg; with E. coli [2] (po), 43.6 mg/kg.
Turning to `COC[C@@H]1CN(c2ccc(S(C)(=O)=O)cc2)C(=O)O1` [Example 32, l-5-(Methoxymethyl)-3-[4-(methylsulfonyl)phenyl]-2-oxazolidinone], the MIC in the experiment on S. epidermidis (setting [3]) is 100 µg/mL (≈ 350 µM); in the experiment with E. Coli [1] (setting [3]), > 200 µg/mL. Besides, the figures for the median effective dose (ED50) in the experiment with Staphylococcus aureus (setting [4]) and in the experiment on E. coli [2] (setting [5]) were 5.1 mg/kg and 11.8 mg/kg, respectively.
Regarding `CNS(=O)(=O)c1ccc(N2C[C@@H](CO)OC2=O)cc1` [Example 6, l-4-[5-(Hydroxymethyl)-2-oxooxazolidin-3-yl]-N-methylbenzenesulfonamide], the MIC was 62.5 µg/mL (≈ 218 µM) in the experiment with S. epidermidis (setting [3]) and ≥ 200 µg/mL in the experiment with E. Coli [1] (setting [3]). The median effective dose (ED50) amounted to 15.4 mg/kg in the experiment with Staphylococcus aureus (setting [4]) and 39.7 mg/kg in the experiment with E. coli [2] (setting [5]).
With `C=CCOCC1CN(c2ccc(C(C)C)cc2)C(=O)O1` (racemic) [Example 40], the median effective dose (ED50) in the experiment on Staphylococcus aureus (setting [4]) was found to be 79.8 mg/kg.
As for `CC(=O)OCC1CN(c2ccc(S(N)(=O)=O)cc2)C(=O)O1` (racemic) [Example 17, dl-4-[5-(Acetoxymethyl)-2-oxooxazolidin-3-yl]benzenesulfonamide], the MIC in the experiment with S. epidermidis (setting [3]) and in the experiment on E. Coli [1] (setting [3]) was > 50 µg/mL in each case. The 50% effective dose (ED50) in the experiment on Staphylococcus aureus (setting [4]) amounted to 47.1 mg/kg; with E. coli [2] (setting [5]) it was 48.9 mg/kg.
Take `CN(C)S(=O)(=O)c1ccc(N2CC(CO)OC2=O)cc1` (racemic) [Example 3a, dl-N,N-dimethyl-4-[5-(hydroxymethyl)-2-oxooxazolidin-3-yl]benzenesulfonamide]: the MIC in the experiment with S. epidermidis (setting [3]) is 50 µg/mL (≈ 166 µM); with E. Coli [1] (setting [3]), > 200 µg/mL.
Regarding `CS(C)=NS(=O)(=O)c1ccc(N2CC(CO)OC2=O)cc1` (racemic) [Example 15, dl-N-{4-[5-(Hydroxymethyl)-2-oxooxazolidin-3-yl]-phenylsulfonyl}-S,S-dimethylsulfilimine], the MIC with S. epidermidis (setting [3]) and in the experiment with E. Coli [1] (setting [3]) was > 100 µg/mL throughout. Moreover, the values for the ED50 in the experiment on Staphylococcus aureus (setting [4]) and in the experiment on E. coli [2] (setting [5]) were 48.5 mg/kg and 118 mg/kg, respectively.
Regarding `CNS(=O)(=O)c1ccc(N2CC(CO)OC2=O)cc1` (racemic) [Example 3b, dl-N-methyl-4-[5-(hydroxymethyl)-2-oxooxazolidin-3-yl]benzenesulfonamide], the MIC in the experiment on S. epidermidis (setting [3]) was 50 µg/mL (≈ 175 µM); in the experiment with E. Coli [1] (setting [3]), > 200 µg/mL.
As to `CCC(=O)OCC1CN(c2ccc(S(N)(=O)=O)cc2)C(=O)O1` (racemic) [Example 19, dl-4-[5-(Propionyloxymethyl)-2-oxooxazolidin-3-yl]-benzenesulfonamide], the MIC in the experiment on S. epidermidis (setting [3]) was 25 µg/mL (≈ 76.1 µM); in the experiment with E. Coli [1] (setting [3]), > 100 µg/mL. In addition, the ED50 in the experiment on Staphylococcus aureus (setting [4]) is 166 mg/kg; in the experiment on E. coli [2] (setting [5]), > 360 mg/kg.
On the same counts, the results for `O=C1OC(CO)CN1c1ccc(S(=O)(=O)N(Cl)Cl)cc1` (racemic) [Example 11, dl-N,N-Dichloro-4-[5-(hydroxymethyl)-2-oxooxazolidin-3-yl]benzenesulfonamide] are > 100 µg/mL, > 100 µg/mL, 36.3 mg/kg and 53.7 mg/kg.
`NNS(=O)(=O)c1ccc(N2CC(CO)OC2=O)cc1` (racemic) [Example 16, dl-3-[4-Hydrazinosulfonyl)phenyl]-5-(hydroxymethyl)-2-oxazolidin-2-one]: the MIC in the experiment with S. epidermidis (setting [3]) and in the experiment with E. Coli [1] (setting [3]) was > 100 µg/mL in each case. Moreover, the ED50 in the experiment with Staphylococcus aureus (setting [4]) was 119 mg/kg; in the experiment on E. coli [2] (setting [5]), > 360 mg/kg.
